# Source: patent US11464770B2, “Anticancer pharmaceutical composition” (NATIONAL CANCER CENTER, priority 2016, dated 2022)
# Where two headings read alike, the source gives them in different places.
# What was measured:
# [1] = system: prostate cancer cell lines (e.g. DU145/TXR); assay: Cell based assay, cell viability (CellTiter-Glo), prostate cancer cell lines; details: Homo sapiens, 72 hours treatment, final concentration 0 to 2 μM
# Protocol: (§1) Commercially available bladder cancer, prostate cancer, lung cancer, breast cancer, blood cancer, pancreatic cancer, colorectal cancer, brain cancer, neuroblastoma, melanoma, liver cancer, cervical carcinoma, ovarian cancer, renal cancer, and papilloma cell lines were each treated with trypsin-EDTA and cultured, followed by being seeded in each well of a 96 well plate. After 24 hours of treatment at constant temperature, the respective cells were treated with the candidate compound so that a final concentration became 0 to 2 μM. The treated cells were additionally cultured for 72 hours, and cell viability was measured by using an ATP detection method (CellTiter-Glo® Luminescent Cell Viability Assay, Promega).
# renal cancer cell lines = assay: Cell based assay, cell viability (CellTiter-Glo), renal cancer cell lines; details: Homo sapiens; ACHN cells
# Protocol: as §1
# [2] = CWR22 cells, read-out: IC50, prostate cancer cell line CWR22
# [3] = DU-145, DU145/TXR cells, read-out: IC50, prostate cancer cell line DU145/TXR
# [4] = DU-145, DU145 cells, read-out: IC50, prostate cancer cell line DU145
# [5] = LNcap cells, read-out: IC50, prostate cancer cell line LNcap
# [6] = PC-3 cells, read-out: IC50, prostate cancer cell line PC-3
Structure (SMILES),"IC50 [1, 2]","IC50 [1, 3]","IC50 [1, 4]","IC50 [1, 5]","IC50 [1, 6]",IC50 (renal cancer cell lines)
"CC(=O)c1c([S+]([O-])Cc2ccc(S(F)(F)(F)(F)F)cc2F)[nH]c2c(Br)ccc(Cl)c2c1=O (stereo not shown) [Compound 69, 3-acetyl-8-bromo-5-chloro-2-((2-fluoro-4-(pentafluoro-16-sulfanyl)benzyl)sulfinyl)quinolin-4(1H)-one]",1870 nM,1110 nM,1000 nM,> 2000 nM,1300 nM,> 2000 nM
"CC(=O)c1c([S+]([O-])Cc2cccc(S(F)(F)(F)(F)F)c2)[nH]c2c(Br)ccc(Cl)c2c1=O (stereo not shown) [Compound 77, 3-acetyl-8-bromo-5-chloro-2-((3-(pentafluoro--sulfanyl)benzyl)sulfinyl)quinolin-4(1H)-one]",> 2000 nM,930 nM,930 nM,> 2000 nM,1480 nM,> 2000 nM
"CC(=O)c1c([S+]([O-])Cc2ccc(SC(F)(F)F)cc2)[nH]c2c(Cl)ccc(Cl)c2c1=O (stereo not shown) [Compound 79, 3-acetyl-5,8-dichloro-2-((4-((trifluoromethyl)thio)benzyl)sulfinyl)quinolin-4(1H)-one]",> 2000 nM,> 2000 nM,> 2000 nM,> 2000 nM,–,> 2000 nM
"CC(=O)c1c([S+]([O-])Cc2ccc(S(F)(F)(F)(F)F)cc2)[nH]c2c(F)ccc(F)c2c1=O (stereo not shown) [Compound 80, 3-acetyl-5,8-difluoro-2-((4-(pentafluoro--sulfanyl)benzyl)sulfinyl)quinolin-4(1H)-one]",> 2000 nM,> 2000 nM,> 2000 nM,> 2000 nM,–,> 2000 nM
"CC(=O)c1c([S+]([O-])Cc2ccc(C(F)(F)F)o2)[nH]c2c(F)ccc(F)c2c1=O (stereo not shown) [Compound 81, 3-acetyl-5,8-difluoro-2-(((5-(trifluoromethyl)furan-2-yl)methyl)sulfinyl)quinolin-4(1H)-one]",> 2000 nM,> 2000 nM,> 2000 nM,> 2000 nM,–,> 2000 nM
"CC(=O)c1c([S+]([O-])Cc2cc(C)on2)[nH]c2c(F)ccc(F)c2c1=O (stereo not shown) [Compound 82, 3-acetyl-5,8-difluoro-2-(((5-methylisoxazol-3-yl)methyl)sulfinyl)quinolin-4(1H)-one]",> 2000 nM,> 2000 nM,> 2000 nM,> 2000 nM,–,> 2000 nM
"CC(C)C(=O)c1c([S+]([O-])Cc2ccc(SC(F)(F)F)cc2)[nH]c2c(F)ccc(F)c2c1=O (stereo not shown) [Compound 85, 5,8-difluoro-3-isobutyryl-2-((4-((trifluoromethyl)thio)benzyl)sulfinyl)quinolin-4(1H)-one]",> 2000 nM,> 2000 nM,> 2000 nM,> 2000 nM,–,> 2000 nM
"O=C(c1ccccc1)c1c([S+]([O-])Cc2ccc(S(F)(F)(F)(F)F)cc2)[nH]c2c(F)ccc(F)c2c1=O (stereo not shown) [Compound 87, 3-benzoyl-5,8-difluoro-2-((4-(pentafluoro--sulfanyl)benzyl)sulfinyl)quinolin-4(1H)-one]",> 2000 nM,> 2000 nM,> 2000 nM,> 2000 nM,–,> 2000 nM
"Cc1cc(C[S+]([O-])c2[nH]c3c(Cl)ccc(Cl)c3c(=O)c2C(=O)c2ccccc2)no1 (stereo not shown) [Compound 88, 3-benzoyl-5,8-dichloro-2-(((5-methylisoxazol-3-yl)methyl)sulfinyl)quinolin-4(1H)-one]",> 2000 nM,> 2000 nM,> 2000 nM,> 2000 nM,–,> 2000 nM
"CC(=O)c1c([S+]([O-])CN2C(=O)c3ccccc3C2=O)[nH]c2c(Cl)ccc(Cl)c2c1=O (stereo not shown) [Compound 90, 2-(((3-acetyl-5,8-dichloro-4-oxo-1,4-dihydroquinolin-2-yl)sulfinyl)methyl)isoindoline-1,3-dione]",> 2000 nM,> 2000 nM,> 2000 nM,> 2000 nM,> 2000 nM,> 2000 nM
"COC(=O)c1ccc(C[S+]([O-])c2[nH]c3c(Cl)ccc(Cl)c3c(=O)c2C(C)=O)cc1 (stereo not shown) [Compound 91, methyl 4-(((3-acetyl-5,8-dichloro-4-oxo-1,4-dihydroquinolin-2-yl)sulfinyl)methyl)benzoate]",> 2000 nM,1980 nM,> 2000 nM,> 2000 nM,–,> 2000 nM
"COc1cccc2[nH]c(SCc3ccc(S(F)(F)(F)(F)F)cc3)c(C(C)=O)c(=O)c12 [Compound 92, 3-acetyl-5-methoxy-2-((4-(pentafluoro--sulfanyl)benzyl)thio)quinolin-4(1H)-one]",> 2000 nM,> 2000 nM,> 2000 nM,> 2000 nM,> 2000 nM,> 2000 nM
"COc1cccc2[nH]c([S+]([O-])Cc3ccc(S(F)(F)(F)(F)F)cc3)c(C(C)=O)c(=O)c12 (stereo not shown) [Compound 93, 3-acetyl-5-methoxy-2-((4-(pentafluoro--sulfanyl)benzyl)sulfinyl)quinolin-4(1H)-one]",> 2000 nM,> 2000 nM,> 2000 nM,> 2000 nM,–,> 2000 nM
"COc1cccc2[nH]c([S+]([O-])Cc3cc(C)on3)c(C(C)=O)c(=O)c12 (stereo not shown) [Compound 94, 3-acetyl-5-methoxy-2-(((5-methylisoxazol-3-yl)methyl)sulfinyl)quinolin-4(1H)-one]",> 2000 nM,> 2000 nM,> 2000 nM,> 2000 nM,–,> 2000 nM
"Cc1cc(C[S+]([O-])c2[nH]c3c(Br)ccc(Cl)c3c(=O)c2C(=O)C2CC2)no1 (stereo not shown) [Compound 96, 8-bromo-5-chloro-3-(cyclopropanecarbonyl)-2-(((5-methylisoxazol-3-yl)methyl)sulfinyl)quinolin-4(1H)-one]",1900 nM,1770 nM,1740 nM,> 2000 nM,> 2000 nM,1670 nM
"Cc1cc(C[S+]([O-])c2[nH]c3c(Cl)ccc(Cl)c3c(=O)c2C(=O)C2CC2)no1 (stereo not shown) [Compound 97, 5,8-dichloro-3-(cyclopropanecarbonyl)-2-(((5-methylisoxazol-3-yl)methyl)sulfinyl)quinolin-4(1H)-one]",1480 nM,1500 nM,1280 nM,> 2000 nM,1700 nM,1330 nM
"CC(=O)c1c([S+]([O-])Cc2ccc(C#N)s2)[nH]c2c(Br)ccc(Cl)c2c1=O (stereo not shown) [Compound 98, 5-(((3-acetyl-8-bromo-5-chloro-4-oxo-1,4-dihydroquinolin-2-yl)sulfinyl)methyl)thiophene-2-carbonitrile]",1550 nM,1910 nM,1920 nM,> 2000 nM,> 2000 nM,1810 nM
"CC(=O)c1c([S+]([O-])Cc2ccc(-n3cccn3)nc2)[nH]c2c(Br)ccc(Cl)c2c1=O (stereo not shown) [Compound 99, 2-(((6-(1H-pyrazol-1-yl)pyridin-3-yl)methyl)sulfinyl)-3-acetyl-8-bromo-5-chloroquinolin-4(1H)-one]",1240 nM,1060 nM,970 nM,> 2000 nM,1510 nM,1210 nM
"CC(=O)c1c([S+]([O-])Cc2ccc(N)nc2)[nH]c2c(Br)ccc(Cl)c2c1=O (stereo not shown) [Compound 100, 3-acetyl-2-(((6-aminopyridin-3-yl)methyl)sulfinyl)-8-bromo-5-chloroquinolin-4(1H)-one]",> 2000 nM,> 2000 nM,> 2000 nM,> 2000 nM,–,> 2000 nM
"O=C(c1c([S+]([O-])Cc2ccc(SC(F)(F)F)cc2)[nH]c2c(Br)ccc(Cl)c2c1=O)C1CC1 (stereo not shown) [Compound 101, 8-bromo-5-chloro-3-(cyclopropanecarbonyl)-2-((4-((trifluoromethyl)thio)benzyl)sulfinyl)quinolin-4(1H)-one]",> 2000 nM,1420 nM,1340 nM,> 2000 nM,> 2000 nM,> 2000 nM
"CC(=O)c1c([S+]([O-])Cc2ccc(C(F)(F)F)nc2C)[nH]c2c(Br)ccc(Cl)c2c1=O (stereo not shown) [Compound 102, 3-acetyl-8-bromo-5-chloro-2-(((2-methyl-6-(trifluoromethyl)pyridin-3-yl)methyl)sulfinyl)quinolin-4(1H)-one]",1490 nM,1120 nM,1650 nM,> 2000 nM,1830 nM,1630 nM
